Test [1] concerns symmetrical dimethylation of arginine (Di-Methyl Histone H4 Arginine 3) in TE11 cells. The test is described as follows: cells. As to conditions: Homo sapiens, TE-11, 72 h. Here is the method:
Compounds of the invention may be tested for potency to inhibit symmetrical dimethylation of arginine in the following assay:
The cell line TE11 was seeded at a density of 6,000 cells per well in 96 well optical quality tissue culture plates in DME medium and 10% foetal bovine serum, and allowed to adhere for 5 hours under standard culture conditions (37 degree Celsius, 5% CO2). […] After incubation for 72 hours, the cells were fixed with 3.7% formaldehyde in PBS for 30 minutes at room temperature, washed with phosphate buffer saline and blocked with Odyssey blocking buffer (LI-COR, Lincoln, Nebr.). Rabbit anti-Di-Methyl Histone H4 Arginine 3 specific antibody (Epigentek) in Odyssey blocking buffer was added and incubated for 14 hours at 4 degree Celsius.

For test [2], the target named is Full-length PRMT5 enzyme co-expressed with His6-MEP50 (Homo sapiens (Human), UniProt O14744). Briefly: PRMT5 Biochemical Assay. As to conditions: histone H4 derived peptide substrate, Transcreener EPIGEN methyltransferase assay, 4 hours at 37 degree Celsius. Here is the method: Compounds of the invention may be tested for in vitro activity in the following assay: A histone H4 derived peptide is used as substrate (amino acid sequence: […]NH2). Full-length PRMT5 enzyme (NCBI Reference sequence NP_006100.2) was co-expressed with His6-MEP50 in insect cells and purified via Nickel immobilized metal affinity and gel filtration chromatography (“the enzyme”).
The 6 μL reactions are run in Greiner brand black 384-well low volume assay plates. All reactions contained assay buffer (phosphate buffered saline, 0.01% (v/v) Tween-20, 0.01% (w/v) albumin from chicken egg white, 1 mM Dithiothreitol, 1 μM peptide substrate, 1 μM S-Adenosyl methionine, and 15 ng/reaction enzyme, with the enzyme being omitted from negative control reactions. Compounds were added in a volume of 100 nL from dilution series prepared in DMSO, positive and negative control reactions receiving the same volume DMSO without compound. The plates were sealed with adhesive seals and incubated for 4 hours at 37 degree Celsius. Reaction progress was measured using the Transcreener™ EPIGEN methyltransferase assay (BellBrook Labs, Madison, Wis.) as recommended by the manufacturer. To each reaction 2 μL detection mix were added, containing coupling enzymes, fluorescence polarisation tracer, and AMP antibody. Plates were incubated for 90 minutes before being read on a PerkinElmer EnVision™ plate reader in fluorescence polarisation mode.

Chain of Full-length PRMT5 enzyme co-expressed with His6-MEP50 (O14744 whole entry): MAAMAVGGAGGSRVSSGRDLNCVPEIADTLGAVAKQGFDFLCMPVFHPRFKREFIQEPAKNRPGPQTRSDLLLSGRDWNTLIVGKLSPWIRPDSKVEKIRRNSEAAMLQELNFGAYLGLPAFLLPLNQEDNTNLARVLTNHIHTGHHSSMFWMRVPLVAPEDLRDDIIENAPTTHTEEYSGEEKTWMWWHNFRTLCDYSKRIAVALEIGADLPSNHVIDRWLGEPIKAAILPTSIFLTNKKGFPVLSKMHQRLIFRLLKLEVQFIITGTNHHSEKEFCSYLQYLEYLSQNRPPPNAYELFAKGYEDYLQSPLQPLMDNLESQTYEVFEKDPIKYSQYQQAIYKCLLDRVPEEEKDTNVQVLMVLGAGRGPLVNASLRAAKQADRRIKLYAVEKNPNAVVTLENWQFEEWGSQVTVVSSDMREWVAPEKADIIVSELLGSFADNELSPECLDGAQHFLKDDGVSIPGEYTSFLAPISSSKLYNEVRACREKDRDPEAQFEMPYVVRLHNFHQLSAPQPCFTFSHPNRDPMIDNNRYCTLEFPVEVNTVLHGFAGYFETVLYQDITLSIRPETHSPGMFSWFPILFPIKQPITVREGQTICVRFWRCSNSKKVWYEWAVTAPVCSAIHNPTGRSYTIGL
Chain of Full-length PRMT5 enzyme co-expressed with His6-MEP50 (Q9BQA1 whole entry partner): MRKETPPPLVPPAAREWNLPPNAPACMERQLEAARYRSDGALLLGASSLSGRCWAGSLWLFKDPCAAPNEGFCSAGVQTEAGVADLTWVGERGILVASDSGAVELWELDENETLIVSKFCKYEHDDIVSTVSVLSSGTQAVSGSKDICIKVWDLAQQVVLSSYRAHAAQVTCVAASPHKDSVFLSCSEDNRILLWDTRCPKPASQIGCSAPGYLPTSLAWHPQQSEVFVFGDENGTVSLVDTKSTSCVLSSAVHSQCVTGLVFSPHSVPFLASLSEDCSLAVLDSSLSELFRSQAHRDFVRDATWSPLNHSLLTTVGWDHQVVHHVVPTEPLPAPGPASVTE

Consider `Cc1nn(C[C@@H](O)CNC2Cc3ccccc3C2)c(=O)c2ccc(C(=O)N3C4CCC3COC4)cc12` [Compound 2, 6-(3-Oxa-8-azabicyclo[3.2.1]octane-8-carbonyl)-2-((S)-3-((2,3-dihydro-1H-Inden-2-yl)amino)-2-hydroxypropyl)-4-methylphthalazin-1(2H)-one], for which the concentration for half-maximal inhibition (IC50) amounted to 18 nM in test [1] and 170 nM in test [2]. With `Cc1nn(CC(O)CNC2Cc3ccccc3C2)c(=O)c2ccccc12` (centres unmarked) [Compound 1, 2-(3-((2,3-Dihydro-1H-inden-2-yl)amino)-2-hydroxypropyl)-4-methylphthalazin-1(2H)-one], in test [2], half-maximal inhibition (IC50) was put at 4530 nM. On to `CCc1nn(C[C@@H](O)CNC2Cc3ccccc3C2)c(=O)c2ccc(C(=O)N3C4CCC3COC4)cc12` [Compound 3, 6-(3-Oxa-8-azabicyclo[3.2.1]octane-8-carbonyl)-2-((S)-3-((2,3-dihydro-1H-Inden-2-yl)amino)-2-hydroxypropyl)-4-ethylphthalazin-1(2H)-one], for which the IC50 turned out to be 1.9 nM in test [1] and 30 nM in test [2].

One may read the IC50 as the concentration needed to halve the response being measured. High values mean a need for much substance, low ones inhibition by little substance.
